The source of these data is US20140323349A1, “COMPOSITIONS AND METHODS FOR MONITORING AND DETECTING CANCEROUS CONDITIONS” (PHIGENIX, INC., priority 2011, published 2014).

Holding throughout (format): cell-based, human
One assay concerns PAX2. Nature of the assay: PAX2 expression after treatment with AngII or receptor blockers. The note with it: for reduction of PAX2 expression: versus untreated control. The method, then:
Western blot analysis was performed as described in Example 2. […] After washing, the membranes were incubated with anti-rabbit antibody conjugated to horseradish peroxidase (HRP) (dilution 1:5000; Sigma), and signal detection was visualized using chemilluminescence reagents (Pierce) on an Alpha Innotech Fluorchem 8900. As a control, blots were stripped and re-probed with mouse anti-β-actin primary antibody (1:5000; Sigma-Aldrich) and HRP-conjugated anti-mouse secondary antibody (1:5000; Sigma-Aldrich), and signal detection was again visualized. Quantitative real-time RT-PCR was performed as described in Example 1 to verify changes in gene expression following PAX2 knockdown in PC3 and DU145 prostate cancer cell lines and the hPrEC normal prostate epithelial cells. Forty cycles of PCR were performed under standard conditions using an annealing temperature of 60° C. Quantification was determined by the cycle number where exponential amplification began (threshold value) and averaged from the values obtained from the triplicate repeats. There was an inverse relationship between message level and threshold value. In addition, GAPDH was used as a housekeeping gene to normalize the initial content of total cDNA. Relative expression was calculated as the ratio between each genes and GAPDH. All reactions were carried out in triplicate.

A further assay relates to PAX2 protein. Nature of the assay: Western blot analysis of PAX2 protein. The conditions noted are these: DU145; 5 uM Los, 25 uM U0126, 20 uM PD98059, 250 μM AICAR. The method, then: Briefly, cells were harvested by trypsinization and washed twice with PBS. Lysis buffer was prepared according to the manufacturer's instructions (Sigma), and was then added to the cells. Following a 15 minute incubation period at 4° C. on an orbital shaker, cell lysate were then collected and centrifuged for 10 minutes at 12000×g to pellet cellular debris. The protein-containing supernatant were then collected and quantitated. Next, 25 μg protein extract was loaded onto an 8-16% gradient SDS-PAGE (Novex). Following electrophoresis, proteins were transferred to PVDF membranes, and then blocked with 5% nonfat dry milk in TTBS (0.05% Tween 20 and 100 mM Tris-C1) for 1 hour. Blots were then probed with rabbit anti-PAX2 primary antibody (Zymed, San Francisco, Calif.) at a 1:2000 dilution. After washing, the membranes were incubated with anti-rabbit antibody conjugated to horseradish peroxidase (HRP) (dilution 1:5000; Sigma), and signal detection was visualized using chemilluminescence reagents (Pierce) on an Alpha Innotech Fluorchem 8900. As a control, blots were stripped and reprobed with mouse anti-β-actin primary antibody (1:5000; Sigma-Aldrich) and HRP-conjugated anti-mouse secondary antibody (1:5000; Sigma-Aldrich) and signal detection was again visualized.
Western blot analysis was performed as described in Example 2. Blots were then probed with primary antibody (anti-PAX2, -phospho-PAX2, -JNK, -phospho-JNK, -ERK1/2, or -phospho-ERK1/2) (Zymed, San Francisco, Calif.) at 1:1000-2000 dilutions. After washing, the membranes were incubated with anti-rabbit antibody conjugated to horseradish peroxidase (HRP) (dilution 1:5000; Sigma), and signal detection was visualized using chemilluminescence reagents (Pierce) on an Alpha Innotech Fluorchem 8900. As a control, blots were stripped and re-probed with mouse anti-β-actin primary antibody (1:5000; Sigma-Aldrich) and HRP-conjugated anti-mouse secondary antibody (1:5000; Sigma-Aldrich), and signal detection was again visualized.

The test system of the next assay is DU145 cells. Nature of the assay: [3H]thymidine incorporation proliferation assay. As for the experimental part: Proliferation of cells was determined by [^3H] thymidine ribotide ([3H]TdR) incorporation into DNA. 0.5×10^6 cells/well of suspension DU145 cells were plated in their appropriate media. Cells were incubated for 72 h with or without the presence of AngII at the indicated concentrations. Cells were exposed to 37 kBq/ml [methyl-3H]thymidine in the same medium for 6 h. The adherent cells were fixed by 5% trichloroacetic acid and lysed in SDS/NaOH lysis buffer overnight. Radioactivity was measured by Beckman LS3801 liquid scintillation counter (Canada). Suspension cell cultures were harvested by cell harvester (Packard Instrument Co., Meriden, Conn.), and radioactivity was measured by 1450 microβ liquid scintillation counter (PerkinElmer Life Sciences).
(Incorporation of labelled thymidine or its analogues reports DNA synthesis.)

For the next assay, the system named is phospho-ERK 1/2. Nature of the assay: Western blot of phospho-ERK 1/2. The conditions noted are these: DU145. The method, then:
(§1) Western blot analysis was performed as described in Example 2. […] After washing, the membranes were incubated with anti-rabbit antibody conjugated to horseradish peroxidase (HRP) (dilution 1:5000; Sigma), and signal detection was visualized using chemilluminescence reagents (Pierce) on an Alpha Innotech Fluorchem 8900. As a control, blots were stripped and re-probed with mouse anti-β-actin primary antibody (1:5000; Sigma-Aldrich) and HRP-conjugated anti-mouse secondary antibody (1:5000; Sigma-Aldrich), and signal detection was again visualized.
(In general: A western blot detects proteins with antibodies after separation by electrophoresis.)

The test system of a further assay is ERK. Nature of the assay: Western blot of ERK. The conditions noted are these: DU145. As for the experimental part:
as §1

A further assay concerns phospho-STAT3. Nature of the assay: Western blot of phospho-STAT3. The conditions noted are these: DU145. As for the experimental part:
as §1

The subject of the next assay is phospho-PAX2. Nature of the assay: Western blot of phospho-PAX2. The note with it: DU145. As for the experimental part: as §1
For the next assay, the system named is phospho-JNK. Nature of the assay: Western blot of phospho-JNK. The note with it: DU145. As for the experimental part: as §1
The test system of a further assay is DEFB1. Nature of the assay: QRT-PCR of DEFB1 (hBD-1) expression. The note with it: 10 μM. The method, then:
Briefly, total RNA was isolated using the SV Total RNA Isolation System (Promega, Madison, Wis.) from approximately 1×10^6 cells harvested by trypsinizing. Cells were lysed and total RNA was isolated by centrifugation through spin columns. For cells collected by LCM, total RNA was isolated using the PicoPure RNA Isolation Kit (Arcturus Biosciences, Mt. View, Calif.) following the manufacturer's protocol. Total RNA (0.5 μg per reaction) from both sources was reverse transcribed into cDNA utilizing random primers (Promega). AMV Reverse Transcriptase II enzyme (500 units per reaction; Promega) was used for first strand synthesis and Tfl DNA Polymerase for second strand synthesis (500 units per reaction; Promega) as per the manufacturer's protocol. In each case, 50 pg of cDNA was used per ensuing PCR reaction. Two-step QRT-PCR was performed on cDNA generated using the MultiScribe Reverse Transcripatase from the TaqMan Reverse Transcription System and the SYBR® Green PCR Master Mix (Applied Biosystems).
Forty cycles of PCR were performed under standard conditions using an annealing temperature of 56° C. In addition, β-actin (Table 2) was amplified as a housekeeping gene to normalize the initial content of total cDNA. […]
Quantitative real-time RT-PCR was performed as described in Example 1 to verify changes in gene expression following PAX2 knockdown in PC3 and DU145 prostate cancer cell lines and the hPrEC normal prostate epithelial cells. […] Quantification was determined by the cycle number where exponential amplification began (threshold value) and averaged from the values obtained from the triplicate repeats. […] Relative expression was calculated as the ratio between each genes and GAPDH. […]
QRT-PCR was performed as previously described (Gibson et al., 2007). […] Gene expression in benign prostate tissue samples was calculated as the expression ratio compared to β-actin. Levels of hBD-1 expression in malignant prostate tissue, hPREC prostate primary culture, and prostate cancer cell lines before and after induction were calculated relative to the average level of hBD-1 expression in hPrEC cells. […]

“Also recorded” adds a separate entry of the source.

As to `Cc1cc(Cn2cnc3c2C[C@@H](C(=O)O)N(C(=O)C(c2ccccc2)c2ccccc2)C3)ccc1N(C)C` [PD123319], the “increase in PAX2 expression” value in the assay on PAX2 (DU145, 48 hours) stood at 7 fold; in the assay on PAX2 (DU145, 96 hours), 8 fold.

For `CCCCc1nc(Cl)c(CO)n1Cc1ccc(-c2ccccc2-c2nn[nH]n2)cc1` [Los, Losartan], in the assay on PAX2 protein, the “PAX2 expression / protein levels” value is reported as “significant reduction of PAX2 expression; also recorded: suppress PAX2 protein levels”. Also, the “decrease in proliferation rate” value with DU145 cells (DU145) is on record as 50%. The “effect on AngII-induced proliferation” value with DU145 cells (DU145, pre-treating for 30 min) is reported as “suppressed the effect of AngII on proliferation”. Further, the “effect on AngII effect on PAX2 expression” value in the assay with PAX2 (DU145) is on record as “blocks the effect of Angiotensin II (AngII) effect on PAX2 expression”. Further, the “reduction of PAX2 expression” value is recorded as 37% with PAX2 (DU145, 48 hours) and 50% in the assay with PAX2 (DU145, 72 hours). For the same molecule, the phospho-ERK entry in the assay with phospho-ERK 1/2 was “reduced the amount of phospho-ERK; also recorded: suppresses phospho-ERK 1/2 and PAX2 protein levels”. In the assay with ERK, the ERK protein levels entry is “no effect on ERK protein levels”. Also, the phospho-STAT3 protein levels result with phospho-STAT3 is “reduced phospho-STAT3 protein levels; also recorded: suppress phospho-STAT3 protein levels”. Further, in the assay on phospho-PAX2, the phospho-PAX2 protein levels entry is recorded as “significant decrease or suppression of phospho-PAX2 protein levels; also recorded: suppress phospho-PAX2 protein expression levels”. In the assay with phospho-JNK, the phospho-JNK protein levels entry is reported as “did not decrease phospho-JNK protein levels; also recorded: failed to decrease phospho-JNK protein levels”.

For `N#CC(=C(/N)Sc1ccccc1N)/C(C#N)=C(\N)Sc1ccccc1N` [Drug U0126, U0126], the “PAX2 expression / protein levels” value in the assay on PAX2 protein is on record as “significant reduction of PAX2 expression; also recorded: suppress PAX2 protein levels”. In addition, in the assay with phospho-STAT3, the phospho-STAT3 protein levels result is given as “reduced phospho-STAT3 protein levels; also recorded: suppress phospho-STAT3 protein levels”. The phospho-PAX2 protein levels entry in the assay on phospho-PAX2 was “significant decrease or suppression of phospho-PAX2 protein levels; also recorded: suppress phospho-PAX2 protein expression levels”. Further, in the assay with phospho-JNK, the phospho-JNK protein levels result is recorded as “did not decrease phospho-JNK protein levels; also recorded: failed to decrease phospho-JNK protein levels”.

`NC(=O)c1ncn([C@@H]2O[C@H](CO)[C@@H](O)[C@H]2O)c1N` [AICAR, 5-Aminoimidazole-4-carboxamide-1-β-4-ribofuranoside]: in the assay on PAX2 protein, the “PAX2 expression / protein levels” value is recorded as “suppression of PAX2 pression expression; also recorded: suppress PAX2 protein levels”. The phospho-STAT3 protein levels result with phospho-STAT3 is given as “suppressed; also recorded: suppress phospho-STAT3 protein levels”. Also, in the assay with phospho-PAX2, the phospho-PAX2 protein levels entry is listed as “suppression; also recorded: suppress phospho-PAX2 protein expression levels”.

As for Angiotensin II (DRVYIHPF) [AngII], the “decrease in DEFB1 expression relative to untreated hPrEC cells” value in the assay on DEFB1 (72 hours) was 35%. For the same molecule, in the assay on DEFB1 (96 hours), the “decrease in DEFB1 expression relative to untreated hPrEC cells” value came out at 50% and the “increase in DEFB1 relative to untreated hPrEC cells” value was 79%. The proliferation rate entry in the assay on DU145 cells (DU145, AngII treatment) is recorded as “two- to three-fold increase; also recorded: increases DU145 cell proliferation”. Also, in the assay with PAX2 (DU145, 30 min to 48 hour AngII treatment), the PAX2 expression entry was “progressively increased over time”. Also, the “increase in PAX2 expression relative to untreated hPrEC cells” value in the assay with PAX2 (hPrEC, 10 μM, 72 hours) is recorded as 66%. In addition, the “PAX2 expression in hPrEC as % of PAX2 levels in PC3 cells” value in the assay with PAX2 (hPrEC, 72 hours) is given as 77%. Moreover, the “PAX2 expression in hPrEC as % of PAX2 expression in PC3 cells” value with PAX2 (hPrEC, 96 hours) worked out at 89%.

Turning to `COc1cccc(-c2cc(=O)c3ccccc3o2)c1N` [PD98059], in the assay on PAX2 protein, the “PAX2 expression / protein levels” value is recorded as “decreased PAX2; also recorded: suppress PAX2 protein levels”. The phospho-STAT3 protein levels result with phospho-STAT3 is “reduced phospho-STAT3 protein levels; also recorded: suppress phospho-STAT3 protein levels”. For the same molecule, the phospho-PAX2 protein levels entry in the assay on phospho-PAX2 is recorded as “significant decrease or suppression of phospho-PAX2 protein levels; also recorded: suppress phospho-PAX2 protein expression levels”.
